Key:
[1] = Reversal of P-gp-mediated multidrug resistance in human KBV cells assessed as potentiation of paclitaxel-induced cytotoxicity by measuring paclitaxel IC50 at 5 uM after 72 hrs by MTT assay (Rvb = 1353.98 +/- 303.33 nM)
[2] = Reversal of P-gp-mediated multidrug resistance in human KBV cells assessed as potentiation of paclitaxel-induced cytotoxicity by measuring paclitaxel IC50 at 10 uM after 72 hrs by MTT assay (Rvb = 1353.98 +/- 303.33 nM)

## CC(C)(O)[C@H]1CC[C@@](C)([C@H]2CC[C@]3(C)[C@@H]2[C@H](O)C[C@@H]2[C@@]4(C)CC[C@H](N)C(C)(C)[C@@H]4CC[C@]23C)O1
[1]
  IC50: 135 nM
[2]
  IC50: 48 nM

## CC(C)(C)OC(=O)NCCCCCC(=O)N[C@H]1CC[C@]2(C)[C@H]3C[C@@H](O)[C@@H]4[C@@H]([C@]5(C)CC[C@H](C(C)(C)O)O5)CC[C@@]4(C)[C@]3(C)CC[C@H]2C1(C)C
[1]
  IC50: 48 nM
[2]
  IC50: 28 nM

From BindingDB's records for doi:10.1016/j.ejmech.2018.10.038 (Universities of Shandong, 2019)
